Measured values: patent publication US6825348B2, “Antiviral compounds” (Academia Sinica, priority 2002, dated 2004)

Tests used:
[1] = tested on: Vero cells
[2] = tested on: HIV-1 (IIIB); assay: microbe, parasite or virus in culture; assay type: cell-based; details: MT4 cells, average of duplicates
[3] = tested on: herpes simplex type 1 virus (HSV-1) (KOS); assay: Inhibition of HSV-1 cytopathogenicity in Vero cell culture; assay type: cell-based; details: Vero cell culture; 50% inhibition of virus-induced cytopathogenicity; mean of duplicates; for 1:1 (W/W) mixtures IC50 refers to known antiviral drugs
[4] = tested on: MT4 cells
[5] = tested on: human cytomegalovirus (AD-169); assay: Inhibition of HCMV cytopathogenicity in Vero cell culture; assay type: cell-based; details: Vero cell culture; 50% inhibition of cytopathogenicity; for 1:1 mixtures IC50 refers to known antiviral drugs
[6] = Solubility in water (phosphate buffer, UV absorbance); details: phosphate buffer 0.10 M, pH 6.8, agitated 20 h
[7] = tested on: HIV-2 (LAV-2); assay: Inhibition of HIV-2 cytopathogenicity in MT4 cells; assay type: cell-based, human immunodeficiency virus; details: MT4 cells, average of duplicates
[8] = tested on: HeLa cells
[9] = tested on: moloney murine sarcoma virus (MSV); assay: Inhibition of MSV cytopathogenicity in CEM cells (cell-protection assay); assay type: cell-based; details: CEM cells, average of duplicates
[10] = tested on: herpes simplex type 2 virus (HSV-2) (G); assay: Inhibition of HSV-2 cytopathogenicity in Vero cell culture; assay type: cell-based; details: 50% inhibition of cytopathogenicity, for 1:1 mixtures IC50 refers to known antiviral drugs
[11] = tested on: CEM cells
[12] = tested on: thymidine kinase-deficient (TK−) varicella-zoster virus (YS/R); assay: microbe, parasite or virus in culture; assay type: cell-based; details: Vero cell culture; 50% inhibition of cytopathogenicity; for 1:1 mixtures IC50 refers to known antiviral drugs
[13] = tested on: thymidine kinase-positive (TK+) varicella-zoster virus (YS); assay: Inhibition of TK+ VZV cytopathogenicity in Vero cell culture; assay type: cell-based; details: Vero cell culture; 50% inhibition of cytopathogenicity; for 1:1 mixtures IC50 refers to known antiviral drugs
[14] = Lipophilicity, 1-octanol/water partition coefficient; details: P = [substrate]1-octanol/[substrate]H2O; phosphate buffer 0.10 M

For “[1-(Guanine-9-yl-ethoxy)methyl]phosphono-6-yl-(Z)-4-(ethylidene)-2,3-dimethoxy-Δ^a,b-butenolide [Compound 29]”, the “Vero cell, concentration causing microscopically visible change or disruption in about 50% of the cell sheet” value [1] was 6.6 µg/mL, the “IC50 HIV-1 (IIIB)” value [2] was 6.0 µg/mL and the “IC50 HSV-1 (KOS)” value [3] was 0.42 µg/mL. For the same substance, the “MT4 cell, concentration reducing the number of viable uninfected cells by 50%” value [4] was 14 µg/mL, the “IC50 HCMV (AD-169)” value [5] was 0.020 µg/mL and the solubility in water [6] was 2050 µg/mL. The “IC50 HIV-2 (LAV-2)” value [7] was 7.1 µg/mL, the “HeLa cell, concentration causing microscopically visible change or disruption in about 50% of the cell sheet” value [8] was 8.8 µg/mL and the “IC50 MSV” value [9] was 0.020 µg/mL. For the same substance, the “IC50 HSV-2 (G)” value [10] was 0.28 µg/mL, the “CEM cell, concentration reducing the number of viable uninfected cells by 50%” value [11] was 13 µg/mL and the “IC50 TK−VZV (YS/R)” value [12] was 0.0080 µg/mL. For the same substance, the “IC50 TK+VZV (YS)” value [13] was 0.0070 µg/mL and the “log P (1-octanol/water)” value [14] was 0.79.
